Assay results published in patent EP0331014A2, “Use of ACE inhibitors in diabetes prophylaxis” (THERA - Patent Verwaltungs-GmbH, priority 1988, dated 1989).

System: ÜBERGEWICHTIGEN FRAUEN
Assay: Three-year placebo-controlled prophylaxis study: incidence of diabetes mellitus in overweight persons with impaired oral glucose tolerance
Format: in vivo, Patienten
Conditions: for DIABETES MELLITUS (ERKRANKUNGSRATE AN DIABETES MELLITUS): number of cases (WHO definition), 2 X 3 mg tgl.
Excerpt: Es wurden 122 übergewichtigte Personen ausgesucht, die im Mittel 25 % Übergewicht und eine gestörte orale Glukosetoleranz hatten. Diese Patienten gaben nach Aufklärung ihr Einverständnis an dieser Studie über 3 Jahre teilzunehmen. Sie hatten bereits 5 bis 10 Versuche einer Gewichtsabnahme hinter sich, die alle erfolglos verlaufen waren. Ein Diabetes mellitus war nach der Definition des World Health Organization-Reports (Techn. Rep. Ser. 646, 1-80, 1980), bei diesen Patieten ausgeschlossen. Sie wurden in zwei gleich starke Gruppen eingeteilt, so daß nach Alter, Ausmaß der Störung des Glucose-Toleranz-Tests (OGTT) und Größe und Dauer des Übergewichts kein Unterschied bestand. Die Patienten wurden in halbjährlichen Abständen ambulant kontrolliert. Wie zu Beginn, wurden bei diesen Kontrollen folgende Blutwerte gemessen: Blutsenkung, Blutbild, Nüchternblutzucker, OGTT, Gewicht, Cholesterin und Triglyzeride, Serum Glutamat-Oxalat-Transaminase (SGOT), Serum Glutamat-Pyruvat Transaminase (SGPT). Damit wurden den Stoffwechesl beeinträchtigende Krankheiten ausgeschlossen.
Sie erste Gruppe erhielt 2 x 3 mg Captopril täglich, die zweite entsprechend Placebo. Die Patienten hatten die Auflage, keine den Stoffwech l beeinträchtigende Medikamente, z.B. Diuretika, β-Blocker ode dergleichen einzunehmen. In beiden Gruppen schieden über den Zeitraum von 3 Jahren 28 Patienten aus verschiede nen Gründen aus. Die Gruppen veränderten sich dadurch jedoch nicht so, daß sie statistisch nicht mehr auswertbar waren.

C[C@H](CS)C(=O)N1CCC[C@H]1C(=O)O [Captopril, 1-[(2S)-3-Mercapto-2-methylpropionyl]-L-prolin]
Erkrankungsrate an Diabetes mellitus (nach 3 Jahren, versus placebo, 2 x 3 mg täglich, p < 0,001 (Student's t-Test)): geringere Erkrankungsrate an Diabetes mellitus
DIABETES MELLITUS (ERKRANKUNGSRATE AN DIABETES MELLITUS) (ZEITRAUM 1985 -1 (start), 63 in group): 0
DIABETES MELLITUS (ERKRANKUNGSRATE AN DIABETES MELLITUS) (ZEITRAUM 1986 - 2, 60 in group): 2
DIABETES MELLITUS (ERKRANKUNGSRATE AN DIABETES MELLITUS) (ZEITRAUM 1987 - 2, 54 in group): 4
DIABETES MELLITUS (ERKRANKUNGSRATE AN DIABETES MELLITUS) (ZEITRAUM 1988 - 1, 48 in group, placebo 11 of 46, p< 0,001): 4
Verminderung dieses Risikos (an Diabetes mellitus zu erkranken) (risk groups (strongly overweight, older than 50 years; risk about 45 % over two years), 2 x 3 mg pro Tag): > 50%
